From patent publication US9394305B2, “Substituted imidazo[1,2-a]pyridine compounds as tropomyosin receptor kinase a (TrkA) inhibitors” (Dr. Reddy's Laboratories Ltd., priority 2014, dated 2016) come the findings set out here.

SMILES strings stand for the structures. Bounds are passed on as bounds.

The target in one assay is T1, TrkA kinase (Homo sapiens, UniProt P04629).
T1 construct: purchased Upstate, USA
T1 sequence (P04629 33-796): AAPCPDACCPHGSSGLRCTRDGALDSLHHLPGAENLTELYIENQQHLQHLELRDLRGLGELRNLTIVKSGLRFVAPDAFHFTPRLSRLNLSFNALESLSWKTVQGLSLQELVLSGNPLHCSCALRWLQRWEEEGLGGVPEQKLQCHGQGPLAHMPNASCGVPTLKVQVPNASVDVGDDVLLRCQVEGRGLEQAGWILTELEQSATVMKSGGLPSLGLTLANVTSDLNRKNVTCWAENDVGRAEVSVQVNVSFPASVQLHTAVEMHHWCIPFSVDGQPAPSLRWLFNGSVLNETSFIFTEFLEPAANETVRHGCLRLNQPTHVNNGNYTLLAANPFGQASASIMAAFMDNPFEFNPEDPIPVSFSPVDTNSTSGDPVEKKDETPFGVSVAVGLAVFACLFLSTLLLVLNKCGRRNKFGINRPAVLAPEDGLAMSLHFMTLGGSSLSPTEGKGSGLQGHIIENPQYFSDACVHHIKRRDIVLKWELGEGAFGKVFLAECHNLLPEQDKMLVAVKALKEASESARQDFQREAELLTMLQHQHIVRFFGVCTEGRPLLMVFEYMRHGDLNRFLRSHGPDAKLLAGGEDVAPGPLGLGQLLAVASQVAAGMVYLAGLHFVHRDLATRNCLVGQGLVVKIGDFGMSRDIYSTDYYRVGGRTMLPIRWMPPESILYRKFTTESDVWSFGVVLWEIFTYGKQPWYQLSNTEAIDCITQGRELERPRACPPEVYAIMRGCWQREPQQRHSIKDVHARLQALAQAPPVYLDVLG
Nature of the assay: In vitro TrkA inhibitory activity using TR-FRET assay. In kind it is biochemical. The following applies: 5 ng TrkA, 500 μM ATP, values given as bins, read-out: TrkA inhibition in-vitro IC50. As for the experimental part:
Compounds were screened in the TR-FRET assay with TrkA kinase. 5 ng of TrkA [Upstate, USA] kinase was used for assay. The compound was incubated with the kinase for 30 minutes at 20-35° C. After the incubation, substrate mix [40 nM Ultra light poly GT (Perkin Elmer, USA) and 500 μM ATP] was added. The above reaction was stopped by the addition of 40 mM EDTA after 30 minutes. The Eu-labelled antiphospho-tyrosine antibody [Perkin Elmer, USA] was added at 0.5 nM and the fluorescence emission at 615 nm/665 nm [excitation at 340 nm] was measured. The compounds were initially screened at 100 nM, 1 μM and 10 μM concentrations. The potent compounds with >25% inhibition at 1 μM of TrkA were taken for the full dose response studies. The final DMSO concentration in the assay was […]. For IC50 determination, ⅓^rd serial dilution was made from the 20 mM DMSO stock solution. 2 μl of these were transferred to the test wells containing 20 μl reaction mixture [Total reaction volume 22 μl]. The fluorescence was measured in Perkin Elmer Wallac 1420 Multilabel Counter Victor 3. The IC50 was determined by fitting the dose response data to a sigmoidal curve fitting equation using GraphPad Prism software version 5.
In general terms: Time-resolved FRET reads energy transfer from a long-lived donor to a nearby acceptor.
Usually IC50 stands for the midpoint of a concentration-inhibition curve. On to `CCOC(=O)CNC(=O)c1cnc2ccc(N3CCC[C@H]3c3cc(F)ccc3F)cn12` (single isomer, unassigned) [Example 18, Ethyl 2-(6-(2-(2,5-difluorophenyl)pyrrolidin-1-yl)imidazo[1,2-a]pyridine-3-carboxamido)acetate], for which the IC50 was 100 to 500 nM.

`O=C(O)CNC(=O)c1cnc2ccc(N3CCC[C@H]3c3cc(F)ccc3F)cn12` (single isomer, unassigned) [Example 19, 2-(6-(2-(2,5-difluorophenyl)pyrrolidin-1-yl)imidazo[1,2-a]pyridine-3-carboxamido)acetic acid]: the IC50 lay in the range of 100 to 500 nM.

`CCN(C)S(=O)(=O)NC(=O)c1cnc2ccc(N3CCCC3c3cc(F)ccc3O[C@@H]3CCOC3)cn12` (single isomer, unassigned) [Example 63]: the IC50 is not above 50 nM.

Take `CC1(S(=O)(=O)NC(=O)c2cnc3ccc(N4CCCCC4c4cc(F)ccc4F)cn23)CC1` (single isomer, unassigned) [Example 69, 6-(2-(2,5-difluorophenyl)piperidin-1-yl)-N-((1-methylcyclo-propyl)sulfonyl)imidazo[1,2-a]pyridine-3-carboxamide]: the IC50 is not above 50 nM.

With `CN(CCF)S(=O)(=O)NC(=O)c1cnc2ccc(N3CCCC3c3cc(F)cc4c3OCCO4)cn12` (single isomer, unassigned) [Example 71, 6-(2-(7-fluoro-2,3-dihydrobenzo[b][1,4]dioxin-5-yl)pyrrolidin-1-yl)-N-(N-(2-fluoroethyl)-N-methylsulfamoyl)imidazo[1,2-a]pyridine-3-carboxamide], the IC50 is 100 to 500 nM.

With `CCN(C)S(=O)(=O)NC(=O)c1cnc2ccc(N3CCCC3c3cc(F)cc4c3OCCO4)cn12` (single isomer, unassigned) [Example 72, N-(N-ethyl-N-methylsulfamoyl)-6-(2-(7-fluoro-2,3-dihydrobenzo [b][1,4]dioxin-5-yl)pyrrolidin-1-yl)imidazo[1,2-a]pyridine-3-carboxamide], the IC50 lay in the range of 100 to 500 nM.

As to `O=C(c1cnc2ccc(N3CCCC3c3cc(F)ccc3F)cn12)N1CC(O)C1` (single isomer, unassigned) [Example 73, (6-(2-(2,5-difluorophenyl)pyrrolidin-1-yl)imidazo[1,2-a]pyridine-3 yl)(3-hydroxyazetidin-1-yl)methanone], the IC50 was not above 50 nM.

Turning to `O=C(Nc1ccc(F)cc1)c1cnc2ccc(N3CCCC3c3cc(F)ccc3F)cn12` (stereo not drawn) [Example 1, 6-(2-(2,5-difluorophenyl)pyrrolidin-1-yl)-N-(4-fluorophenyl)imidazo[1,2-a]pyridine-3-carboxamide], the IC50 is not above 50 nM.

Regarding `O=C(Nc1cnc2ccc(N3CCCC3c3cc(F)ccc3F)cn12)N1CC[C@H](O)C1` (stereo partly drawn) [Example 2, (3 S)—N-(6-(2-(2,5-difluorophenyl)pyrrolidin-1-yl)imidazo[1,2-a]pyridin-3-yl)-3-hydroxypyrrolidine-1-carboxamide], the IC50 lay in the range of 100 to 500 nM.

As to `O=C(c1cnc2ccc(N3CCCC3c3cc(F)ccc3F)cn12)N1CC[C@H](O)C1` (stereo partly drawn) [Example 3, (6-(2-(2,5-difluorophenyl)pyrrolidin-1-yl)imidazo[1,2-a]pyridin-3-yl)((S)-3-hydroxypyrrolidin-1-yl)methanone], the IC50 was not above 50 nM.

Consider `O=C(c1cnc2ccc(N3CCCC3c3cc(F)ccc3F)cn12)N1CC(O)C1` (stereo not drawn) [Example 4, (6-(2-(2,5-difluorophenyl)pyrrolidin-1-yl)imidazo[1,2-a]pyridin-3-yl)(3-hydroxyazetidin-1-yl)methanone], for which the IC50 was not above 50 nM.

Take `O=C(NC(CO)CO)c1cnc2ccc(N3CCCC3c3cc(F)ccc3F)cn12` (stereo not drawn) [Example 5, 6-(2-(2,5-difluorophenyl)pyrrolidin-1-yl)-N-(1,3-dihydroxypropan-2-yl)imidazo[1,2-a]pyridine-3-carboxamide]: the IC50 was not above 50 nM.

`CN(C)C(=O)c1cnc2ccc(N3CCCC3c3cc(F)ccc3F)cn12` (stereo not drawn) [Example 8, 6-(2-(2,5-difluorophenyl)pyrrolidin-1-yl)-N,N-dimethylimidazo[1,2-a]pyridine-3-carboxamide]: the IC50 lay within 100 to 500 nM.

Turning to `O=C(c1ccc(F)cc1)c1cnc2ccc(N3CCCC3c3cc(F)ccc3F)cn12` (stereo not drawn) [Example 10, (6-(2-(2,5-difluorophenyl)pyrrolidin-1-yl)imidazo[1,2-a]pyridin-3-yl)(4-fluorophenyl)methanone], the IC50 was 50 to 100 nM.

Turning to `CC(CO)(CO)NC(=O)c1cnc2ccc(N3CCC[C@@H]3c3cc(F)ccc3F)cn12` [Example 24, (R)-6-(2-(2,5-difluorophenyl)pyrrolidin-1-yl)-N-(1,3-dihydroxy-2-methylpropan-2-yl)imidazo[1,2-a]pyridine-3-carboxamide], the IC50 fell in the range of 100 to 500 nM.

Consider `O=C(NC[C@H](O)CO)c1cnc2ccc(N3CCC[C@@H]3c3cc(F)ccc3F)cn12` [Example 25, 6-((R)-2-(2,5-difluorophenyl)pyrrolidin-1-yl)-N—((S)-2,3-dihydroxypropyl)imidazo[1,2-a]pyridine-3-carboxamide], for which the IC50 was 50 to 100 nM.

Take `C[C@@H](CO)NC(=O)c1cnc2ccc(N3CCC[C@@H]3c3cc(F)ccc3F)cn12` [Example 28, 6-((R)-2-(2,5-difluorophenyl)pyrrolidin-1-yl)-N—((S)-1-hydroxypropan-2-yl)imidazo[1,2-a]pyridine-3-carboxamide]: the IC50 was in the range of 100 to 500 nM.

Consider `O=C(NC1CCOCC1)c1cnc2ccc(N3CCC[C@@H]3c3cc(F)ccc3F)cn12` [Example 30, (R)-6-(2-(2,5-difluorophenyl)pyrrolidin-1-yl)-N-(tetrahydro-2H-pyran-4-yl)imidazo[1,2-a]pyridine-3-carboxamide], for which the IC50 lay in the range of 100 to 500 nM.

`CC(C)(C)S(=O)(=O)NC(=O)c1cnc2ccc(N3CCC[C@@H]3c3cc(F)ccc3F)cn12` [Example 31, (R)—N-(tert-butylsulfonyl)-6-(2-(2,5-difluorophenyl)pyrrolidin-1-yl)imidazo[1,2-a]pyridine-3-carboxamide]: the concentration for half-maximal inhibition (IC50) lay within 100 to 500 nM.

Turning to `CC1(S(=O)(=O)NC(=O)c2cnc3ccc(N4CCC[C@@H]4c4cc(F)ccc4F)cn23)CC1` [Example 32, (R)-6-(2-(2,5-difluorophenyl)pyrrolidin-1-yl)-N-((1-methylcyclopropyl)sulfonyl)imidazo[1,2-a]pyridine-3-carboxamide], the IC50 is 50 to 100 nM.

Still in this assay, the particulars now being: 5 ng TrkA, 500 μM ATP, values given as bins, read-out: TrkA inhibitory activity in-vitro IC50.
Take `CC1(S(=O)(=O)NC(=O)c2cnc3ccc(N4CCCCC4c4cc(F)cc5c4OCCO5)cn23)CC1` (single isomer, unassigned) [Example 52, 6-(2-(7-fluoro-2,3-dihydrobenzo[b][1,4]dioxin-5-yl)piperidin-1-yl)-N-((1-methylcyclopropyl)sulfonyl)imidazo[1,2-a]pyridine-3-carboxamide]: the IC50 was in the range of 1000 to 10000 nM.

In the case of `CCN(C)S(=O)(=O)NC(=O)c1cnc2ccc(N3CCCC3c3cc(F)ccc3O[C@@H]3CCOC3)cn12` (single isomer, unassigned) [Example 64], the IC50 is 1000 to 10000 nM.

As for `CC(C)(C)S(=O)(=O)NC(=O)c1cnc2ccc(N3CCCC3c3cc(F)ccc3O[C@@H]3CCOC3)cn12` (single isomer, unassigned) [Example 66], the IC50 was 1000 to 10000 nM.

Take `CCN(C)S(=O)(=O)NC(=O)c1cnc2ccc(N3CCCCC3c3cc(F)ccc3F)cn12` (single isomer, unassigned) [Example 70, 6-(2-(2,5-difluorophenyl)piperidin-1-yl)-N-(N-ethyl-N-methyl-sulfamoyl)imidazo[1,2-a]pyridine-3-carboxamide]: the IC50 is 1000 to 10000 nM.

For `O=C(c1cnc2ccc(N3CCCC3c3cc(F)ccc3F)cn12)N1CCOCC1` (stereo not drawn) [Example 6, (6-(2-(2,5-difluorophenyl)pyrrolidin-1-yl)imidazo[1,2-a]pyridin-3-yl)(morpholino)methanone], the IC50 fell in the range of 1000 to 10000 nM.

As for `CN1CCN(C(=O)c2cnc3ccc(N4CCCC4c4cc(F)ccc4F)cn23)CC1` (stereo not drawn) [Example 9, (6-(2-(2,5-difluorophenyl)pyrrolidin-1-yl)imidazo[1,2-a]pyridin-3-yl)(4-methylpiperazin-1-yl)methanone], the IC50 fell in the range of 1000 to 10000 nM.

As to `CN(C)C(=O)Nc1cnc2ccc(N3CCCC3c3cc(F)ccc3F)cn12` (stereo not drawn) [Example 11, 3-(6-(2-(2,5-difluorophenyl)pyrrolidin-1-yl)imidazo[1,2-a]pyridin-3-yl)-1,1-dimethylurea], the IC50 was in the range of 1000 to 10000 nM.

The assay is the same for the next values; noted with them: bin with mixed units (lower bound nM, upper bound μM), read-out: TrkA inhibitory activity in-vitro IC50.
As to `O=C(NC12CC3CC(CC(O)(C3)C1)C2)c1cnc2ccc(N3CCC[C@@H]3c3cc(F)ccc3F)cn12` [Example 23, 6-((R)-2-(2,5-difluorophenyl)pyrrolidin-1-yl)-N-((1r,3S,5R,7S)-3-hydroxyadamantan-1-yl)imidazo[1,2-a]pyridine-3-carboxamide], the IC50 is 500 to 1000 nM.

Consider `CC1(O)CN(C(=O)c2cnc3ccc(N4CCC[C@@H]4c4cc(F)ccc4F)cn23)C1` [Example 26, (R)-(6-(2-(2,5-difluorophenyl)pyrrolidin-1-yl)imidazo[1,2-a]pyridin-3-yl)(3-hydroxy-3-methylazetidin-1-yl)methanone], for which the IC50 lay in the range of 500 to 1000 nM.

As to `O=C(NN1CCCCC1)c1cnc2ccc(N3CCC[C@@H]3c3cc(F)ccc3F)cn12` [Example 27, (R)-6-(2-(2,5-difluorophenyl)pyrrolidin-1-yl)-N-(piperidin-1-yl)imidazo[1,2-a]pyridine-3-carboxamide], the IC50 is 500 to 1000 nM.
